Laboratory results reported in BindingDB's records for PubMed 10900230 (University of Michigan, 2000).

These compounds were tested against T1, Alpha-2A adrenergic receptor (Sus scrofa, UniProt P18871).
T1 sequence (P18871 whole entry): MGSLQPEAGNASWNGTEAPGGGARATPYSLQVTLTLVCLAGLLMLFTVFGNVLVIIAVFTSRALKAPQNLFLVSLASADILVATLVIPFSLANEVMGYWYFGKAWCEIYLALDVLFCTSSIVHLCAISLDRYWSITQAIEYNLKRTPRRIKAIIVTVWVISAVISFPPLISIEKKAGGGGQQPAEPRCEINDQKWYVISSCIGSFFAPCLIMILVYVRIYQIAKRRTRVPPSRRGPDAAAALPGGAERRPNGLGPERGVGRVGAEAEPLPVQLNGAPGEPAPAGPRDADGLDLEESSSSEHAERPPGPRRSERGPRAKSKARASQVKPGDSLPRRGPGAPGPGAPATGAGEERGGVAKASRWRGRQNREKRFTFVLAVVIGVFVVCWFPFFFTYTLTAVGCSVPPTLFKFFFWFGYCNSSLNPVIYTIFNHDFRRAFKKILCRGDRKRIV

Going from Clc1cccc(Cl)c1N=C1NCCN1 [2-(2,6-dichloroanilino)-2-imidazoline] to Clc1cc(I)cc(Cl)c1N=C1NCCN1 [Iodoclonidine-p], the Ki falls from 0.0851 µM to 0.0513 µM (1.7-fold). The second binds more tightly here.

Compared with Cc1cccc(C)c1N=C1NCCCS1 [(5,6-Dihydro-4H-[1,3]thiazin-2-yl)-(2,6-dimethyl-phenyl)-amine], Nc1cc(Cl)c(N=C2NCCN2)c(Cl)c1 [p-AMINOCLONIDINE] is 11-fold lower in Ki: 3.16 µM for the first, 0.288 µM for the second.

Compared with CNCC(O)c1ccc(O)c(O)c1 (stereo unspecified) [EPINEPHRINE], CC(C)NCC(O)c1ccc(O)c(O)c1 (stereo not drawn) [Isoproterenol,(+)] is higher in Ki: 0.646 µM for the first, > 10 µM for the second.

Compared with NC(N)=NN=Cc1c(Cl)cccc1Cl [Guanabenz], NCC(O)c1ccc(O)c(O)c1 (stereo not drawn) [Noradrenaline,(+)] is 98-fold higher in Ki: 0.0575 µM for the first, 5.62 µM for the second. The first binds more tightly here.

First: CCN1CCc2nc(N)oc2CC1 [NSC_169743]
Second: Cc1cc(C(C)(C)C)c(O)c(C)c1CC1=NCCN1 [SMR000059324]
The Ki of the first is higher: > 10 µM for the first, 0.0355 µM for the second. The second binds more tightly here.

Work on Brc1c(NC2=NCCN2)ccc2nccnc12 [UK 14,304] yielded a Ki of 0.479 µM.
